In ChEMBL document CHEMBL1154458, “QSAR study on tetrahydroquinoline analogues as plasmodium protein farnesyltransferase inhibitors: a comparison of rationales of malarial and mammalian enzyme inhibitory activities for selectivity” (Eur J Med Chem, 2008):

What was measured:
[1] = Inhibition of rat PFT
[2] = Inhibition of Plasmodium falciparum PFT
[3] = system: Plasmodium falciparum; test: Antiplasmodial activity against Plasmodium falciparum 3D7; type: functional, organism-based

For Cn1cncc1CN1CC(N(Cc2cc3nsnc3cc2Cl)S(=O)(=O)c2ccccn2)Cc2cc(C#N)ccc21 (stereo unspecified), the pIC50 [1] was 8, the pIC50 [2] was 7.26 and the IC50 [3] was 3020 nM.

For Cn1cncc1CN1CC(N(Cc2ccc3ccccc3c2Br)S(=O)(=O)c2ccccn2)Cc2cc(C#N)ccc21 (stereo unspecified), the pIC50 [1] was 6.36, the pIC50 [2] was 6.78 and the IC50 [3] was 2750 nM.

Work on C=C(C)CN(C1Cc2cc(C#N)ccc2N(Cc2cncn2C)C1)S(=O)(=O)c1cn(C)cn1 (stereo unspecified) yielded a pIC50 [1] of 9.16, a pIC50 [2] of 9.22 and an IC50 [3] of 6.92 nM.

In the case of Cn1cnc(S(=O)(=O)N(CC(=O)NC(C)(C)C)C2Cc3cc(C#N)ccc3N(Cc3cncn3C)C2)c1 (stereo unspecified), the pIC50 [1] is reported as 8.82, the pIC50 [2] is reported as 8.92 and the IC50 [3] is reported as 5.01 nM.

For Cn1cncc1CN1CC(N(CC(=O)NC(C)(C)C)S(=O)(=O)c2nccn2C)Cc2cc(C#N)ccc21 (stereo unspecified), the pIC50 [1] was 8.3, the pIC50 [2] was 8.1 and the IC50 [3] was over 5010 nM.

In the case of Cc1onc(-c2ccccc2)c1CN(C1Cc2cc(C#N)ccc2N(Cc2cncn2C)C1)S(=O)(=O)c1ccccn1 (stereo unspecified), the pIC50 [1] is reported as 8.52, the pIC50 [2] is reported as 9.1 and the IC50 [3] is reported as 112 nM.

Work on Cn1cnc(S(=O)(=O)N(CC2CCN(C(=O)OC(C)(C)C)CC2)C2Cc3cc(C#N)ccc3N(Cc3cncn3C)C2)c1 (stereo unspecified) yielded a pIC50 [1] of 8.5, a pIC50 [2] of 8.96 and an IC50 [3] of 100 nM.

In the case of Cn1cncc1CN1CC(N(Cc2ccccn2)S(=O)(=O)c2ccccn2)Cc2cc(C#N)ccc21 (stereo unspecified), the pIC50 [1] is reported as 8.42, the pIC50 [2] is reported as 8.55 and the IC50 [3] is reported as 51.3 nM.

Work on C=C(Br)CN(C1Cc2cc(C#N)ccc2N(Cc2cncn2C)C1)S(=O)(=O)c1cn(C)cn1 (stereo unspecified) yielded a pIC50 [1] of 9.1, a pIC50 [2] of 9.4 and an IC50 [3] of 6.03 nM.

Cc1ccccc1CN(C1Cc2cc(C#N)ccc2N(Cc2cncn2C)C1)S(=O)(=O)c1cn(C)cn1 (stereo unspecified) gave a pIC50 [1] of 8.47, a pIC50 [2] of 8.82 and an IC50 [3] of 55 nM.

Cn1cncc1CN1CC(N(CC(=O)NC(C)(C)C)S(=O)(=O)c2ccc(F)cc2)Cc2cc(C#N)ccc21 (stereo unspecified) gave a pIC50 [1] of 8.12, a pIC50 [2] of 7.38 and an IC50 [3] of over 5010 nM.

Work on Cn1cncc1CN1CC(N(CC(=O)NC(C)(C)C)S(=O)(=O)c2cccnc2)Cc2cc(C#N)ccc21 (stereo unspecified) yielded a pIC50 [1] of 8.22, a pIC50 [2] of 7.6 and an IC50 [3] of 2690 nM.

Work on Cn1cnc(S(=O)(=O)N(Cc2ccc3ccccc3c2Br)C2Cc3cc(C#N)ccc3N(Cc3cncn3C)C2)c1 (stereo unspecified) yielded a pIC50 [1] of 6, a pIC50 [2] of 7.55 and an IC50 [3] of 3020 nM.

Compound Cn1cnc(S(=O)(=O)N(Cc2ccccc2)C2Cc3cc(C#N)ccc3N(Cc3cncn3C)C2)c1 (stereo unspecified) has a pIC50 [1] of 8.92, a pIC50 [2] of 9.22 and an IC50 [3] of 5.01 nM.

Compound Cn1cncc1CN1CC(N(CC(=O)NC(C)(C)C)S(=O)(=O)c2ccccn2)Cc2cc(C#N)ccc21 (stereo unspecified) has a pIC50 [1] of 8.75, a pIC50 [2] of 8.85 and an IC50 [3] of 85.1 nM.

Work on Cn1cnc(S(=O)(=O)N(CC(=O)OC(C)(C)C)C2Cc3cc(C#N)ccc3N(Cc3cncn3C)C2)c1 (stereo unspecified) yielded a pIC50 [1] of 8.92, a pIC50 [2] of 9.05 and an IC50 [3] of 5.01 nM.

For Cn1cncc1CN1CC(N(CC(=O)NC(C)(C)C)S(=O)(=O)c2ccncc2)Cc2cc(C#N)ccc21 (stereo unspecified), the pIC50 [1] was 6.8, the pIC50 [2] was 6 and the IC50 [3] was over 5010 nM.
